Consider 20 compounds from US10689705B2, “FGFR3 fusion gene and pharmaceutical drug targeting same” (Chugai Seiyaku Kabushiki Kaisha, priority 2012, dated 2020).

In assay [1] the test system is RAT-2 cells that stably express FGFR3-BAIAP2L1. The note with it: orally once daily from seven days after planting; concentration-dependent (FIG. 13).
In assay [2] the test system is human bladder cancer cell line RT112/84. Description: Antitumor effect in cancer-bearing nude mice (FGFR3-TACC3 fusion). The note with it: RT112/84 xenograft. The format is in vivo, BALB/c nude mice. On the procedure: Nude mice were quarantined for about one week before use, and subjected to subcutaneous transplantation of about 1×10^7 RT112/84 cells in the inguinal region. When the tumor size reached about 200 mm^3, the mice were used in experiments.
Antitumor effect was determined by comparing the tumor growth during 11 days after the first day of administration (Day 10 when the first day of administration is set at Day 0) with that of the control group. Tumor growth inhibitory effect(TGI)=(1−[Average tumor growth level of treated group]/[Average tumor growth level of control group])×100(%)

Assay [3] concerns human bladder cancer cell line SW780. Nature of the assay: Antitumor effect in cancer-bearing nude mice (FGFR3-BAIAP2L1 fusion). To be noted: SW780 xenograft. The format is in vivo, BALB/c nude mice. On the procedure:
Nude mice were quarantined for about one week before use, and subjected to subcutaneous transplantation of 5×10^6 SW780 cells in the inguinal region. When the tumor size reached about 200 mm^3, the mice were used in experiments. […] Antitumor effect was determined by comparing the tumor growth during 11 days after the first day of administration (Day 10 when the first day of administration is set at Day 0) with that of the control group. Tumor growth inhibitory effect(TGI)=(1−[Average tumor growth level of treated group]/[Average tumor growth level of control group])×100(%)

A further assay deals with RT4. Nature of the assay: Cell proliferation inhibition, WST-8, four days (Example 3). The class given is cell-based. To be noted: Homo sapiens, RT-4, 96 h, fusion polypeptide expressing. The procedure: (§1) IC50 was calculated using the least-square method.
A further assay deals with SW780. The assay is described as above. The class given is cell-based. The note with it: Homo sapiens, SW780, 96 h, fusion polypeptide expressing. On the procedure: as §1
The next assay deals with HT-1376. The assay is described as above. The class given is cell-based. To be noted: Homo sapiens, HT-1376, 96 h, does not express FGFR3. The procedure:
as §1

For a further assay, the system named is RT112/84. The assay is described as above. The class given is cell-based. To be noted: Homo sapiens, RT112/84, 96 h, fusion polypeptide expressing. On the procedure: as §1
A further assay has as its system UM-UC-14. Described as above. The format is cell-based. The note with it: Homo sapiens, UMUC14, 96 h, mutated type FGFR, no fusion. The procedure: as §1
In the next assay the test system is BFTC-905. Described as above. The class given is cell-based. The note with it: Homo sapiens, BFTC-905, 96 h, wild-type FGFR, no fusion. On the procedure:
as §1

For assay [4], the system named is bladder cancer-derived cell line RT-4 which expresses an FGFR3-TACC3 fusion polypeptide. Description: tissue or blood. The note with it: Homo sapiens, 96 h, read-out: RT-4 (Bladder) IC50.
The subject of assay [5] is colon cancer-derived cell line HCT116. Description: cells. To be noted: Homo sapiens, HCT-116, 96 h, read-out: HCT116 (CRC) IC50.

Where only a bound is given, the exact number is not on record here.

For `Cc1nc2ccc(-n3ncc(C(=O)c4cc5ccccc5[nH]4)c3N)cc2[nH]1` [COMPOUND A], the “tumor enlargement enhanced by the FGFR3-BAIAP2L1 fusion polypeptide” value in [1] is reported as “significantly suppressed”. In addition, the “TGI AFTER 11 DAYS” value in assay [2] (25 mg/kg orally once a day) was 61%; in assay [2] (50 mg/kg orally once a day), 86%; in assay [2] (100 mg/kg orally once a day), 125%; in assay [3] (25 mg/kg orally once a day), 47%; in [3] (50 mg/kg orally once a day), 79%; in assay [3] (100 mg/kg orally once a day), 111%. Further, the IC50 in the assay on RT4 was 350 nM; in the assay on SW780 it was 120 nM; in the assay with HT-1376, more than 10000 nM; with RT112/84, 18 nM; in the assay on UM-UC-14, 110 nM; in the assay with BFTC-905 it was more than 10000 nM.

In the case of `CCN(CC)CCCCNc1ncc2cc(-c3cc(OC)cc(OC)c3)c(NC(=O)NC(C)(C)C)nc2n1` [COMPOUND B, PD173074], the IC50 in the assay with RT4 stood at 180 nM; with SW780 it was 69 nM; with HT-1376 it was 11000 nM; in the assay with RT112/84, 14 nM; in the assay with UM-UC-14, 10 nM; in the assay on BFTC-905 it was 14000 nM.

Consider `COc1cc(CCc2cc(NC(=O)c3ccc(N4C[C@@H](C)N[C@@H](C)C4)cc3)[nH]n2)cc(OC)c1` [COMPOUND C, AZD-4547], for which the IC50 in the assay on RT4 was found to be 250 nM; in the assay with SW780, 160 nM; in the assay with HT-1376, 6700 nM; in the assay on RT112/84 it was 17 nM; in the assay with UM-UC-14, 16 nM; in the assay on BFTC-905, 11000 nM.

With `CCN1CCN(c2ccc(Nc3cc(N(C)C(=O)Nc4c(Cl)c(OC)cc(OC)c4Cl)ncn3)cc2)CC1` [COMPOUND D, BGJ-398], the IC50 with RT4 was 230 nM; in the assay with SW780 it was 1100 nM; in the assay with HT-1376, 10000 nM; in the assay with RT112/84 it was 18 nM; with UM-UC-14, 17 nM; in the assay on BFTC-905, more than 20000 nM.

As to `COc1cc2c(Oc3ccc4[nH]c(C)cc4c3F)ncnc2cc1OCCCN1CCCC1` [COMPOUND E, cediranib], the 50% inhibitory concentration (IC50) came out at 240 nM in the assay on RT4; 530 nM in the assay on SW780; 1100 nM in the assay on HT-1376; 150 nM in the assay on RT112/84; 66 nM in the assay on UM-UC-14; 2500 nM in the assay with BFTC-905.

With `CN1CCN(c2ccc3nc(-c4c(N)c5c(F)cccc5[nH]c4=O)[nH]c3c2)CC1` [COMPOUND F, dovitinib], the IC50 was found to be 250 nM in the assay with RT4; 570 nM with SW780; 620 nM in the assay with HT-1376; 130 nM with RT112/84; 75 nM in the assay on UM-UC-14; 2800 nM in the assay on BFTC-905.

As to `Cc1nc2ccc(-n3ncc(C(=O)c4cc5ccccc5[nH]4)c3N)cc2[nH]1` [Compound 49], the IC50 in assay [4] was 350 nM; in assay [5], 13000 nM.

`Cc1nc2cc(-n3ncc(C(=O)c4cc5ccc(OCc6ccccc6)cc5[nH]4)c3N)ccc2[nH]1` [Compound 59]: the IC50 in assay [5] stood at 3300 nM.

With `Cc1nc2cc(-n3ncc(C(=O)c4cc5cc(C(=O)N6CCCC(F)(F)C6)ccc5[nH]4)c3N)ccc2[nH]1` [Compound 60], in [5], the half-inhibitory concentration (IC50) is 17000 nM.

Consider `Cc1nc2cc(-n3ncc(C(=O)c4cc5cc(SC(F)(F)F)ccc5[nH]4)c3N)ccc2[nH]1` [Compound 61], for which the IC50 in assay [5] amounted to 9100 nM.

Consider `Cc1nc2cc(-n3ncc(C(=O)c4cc5cc(F)c(C(F)(F)F)cc5[nH]4)c3N)ccc2[nH]1` [Compound 62], for which the 50% inhibitory concentration (IC50) in [5] was determined as 1700 nM.

With `C#Cc1cccc2[nH]c(C(=O)c3cnn(-c4ccc5[nH]c(C)nc5c4)c3N)cc12` [Compound 63], the IC50 in [5] worked out at 13000 nM.

For the compound `Cc1nc2cc(-n3ncc(C(=O)c4cc5ccc(-c6ccc(F)cc6)cc5[nH]4)c3N)ccc2[nH]1` [Compound 64], the IC50 in [5] turned out to be 1200 nM.

With `Cc1nc2cc(-n3ncc(C(=O)c4cc5cc(-n6ccnc6)ccc5[nH]4)c3N)ccc2[nH]1` [Compound 65], the IC50 in [5] was 23000 nM.

Turning to `Cc1nc2cc(-n3ncc(C(=O)c4cc5ccc(NS(C)(=O)=O)cc5[nH]4)c3N)ccc2[nH]1` [Compound 66], in assay [5], the IC50 is more than 50000 nM.

In the case of `Cc1nc2cc(-n3ncc(C(=O)c4cc5ccc(OC6CCOCC6)cc5[nH]4)c3N)ccc2[nH]1` [Compound 67], the IC50 in assay [5] was determined as 7300 nM.

As to `Cc1nc2cc(-n3ncc(C(=O)c4cc5cc(C(F)(F)F)ccc5[nH]4)c3N)ccc2[nH]1` [Compound 68], in [5], the IC50 was more than 2000 nM.

In the case of `Cc1nc2cc(-n3ncc(C(=O)c4cc5cc(Oc6ccccc6)ccc5[nH]4)c3N)ccc2[nH]1` [Compound 69], in [5], the IC50 was 4300 nM.

Turning to `Cc1nc2cc(-n3ncc(C(=O)c4cc5cc(F)c(Br)cc5[nH]4)c3N)ccc2[nH]1` [Compound 70], in assay [5], the IC50 was determined as 9000 nM.

As to `Cc1nc2cc(-n3ncc(C(=O)c4cc5cc(Cc6ccccc6)ccc5[nH]4)c3N)ccc2[nH]1` [Compound 71], the IC50 in [5] was 3800 nM.
